{
  "source": "patent US20200199174A1",
  "about": "“NOVEL FLUORESCENT LABELING METHOD” (priority 2017, published 2020)",
  "key": {"[1]": {"conditions": "literature (Zheng et al. 2014); cited from earlier work"}, "5D4": {"tested_on": "5D4", "assay": "Fluorescence change characteristics of fluorophore-DNP pair in presence and absence of 5D4", "format": "biochemical, mouse", "conditions": "recombinant 5D4 expressed/purified in E. coli", "protocol": "The anti-DNP scFv was expressed and purified as a fusion protein of maltose-binding protein. Escherichia coli BL21 (DE3) was transformed with the pMalc5E vector (pMalc5E-scFv) into which the purification object scFv sequence was introduced, and was cultured overnight on an LB medium plate including 100 μg/mL of ampicillin. A single colony was picked up and cultured overnight in 5 mL of a liquid LB medium including 100 μg/mL of ampicillin, and 1 mL of the resultant culture liquid was transferred to 100 mL of LB medium including 100 μg/mL of ampicillin. Shake culturing was performed at 200 rpm and a temperature of 37° C. until an optical density at 600 nm of 0.8 was reached, and after shake culturing was performed for 30 minutes at 15° C., IPTG was added to give a final concentration of 0.5 mM, and shake culturing was continued overnight. The E. coli were recovered after culturing and were disrupted using a sonicator. […] An eluate was replaced with PBS, and yield was quantified by the Bradford method, after which the eluate was subjected to the measurements described below.\nRNA was extracted from the hybridomas of the resultant four clones, and cDNA fragments of the variable regions of the light chains and heavy chains of monoclonal antibodies were obtained by reverse transcription. The cDNA fragments of the variable regions of the light chains and heavy chains were connected via a linker sequence by overlap PCR, and scFv constructs were constructed only from subclones (4E10 and 5D4) derived from wells 1E10 and 3B12, respectively. […] The nucleic acid sequence of the cDNA sequence coding for 5D4 was identified by sequencing (SEQ ID NO: 8), an amino acid sequence determined from the result thereof was analyzed using the IMGT database (http://www.imgt.org/), and a […] region was specified (FIG. 4).\nThis fluorescence characteristic is similar to that of Cy5 dye, which is widely used in fluorescence imaging in cells. In the presence of 5D4, the fluorescence intensity of 6SiR-DNP was increased by a factor of 98 relative to the fluorescence intensity thereof in the absence of 5D4 (FIG. 6B). When fluorescence quantum yield of 6SiR-DNP in a state in which 6SiR-DNP is bound to 5D4 was measured, the fluorescence quantum yield in the presence of an excess of 5D4 was 0.57. This value for the fluorescence quantum yield is large, and is equal to or greater than that of Cy5 (quantum yield=0.2-0.4) and Cy5.5 (quantum yield=0.24), which are also highly versatile fluorescent dyes in cell labeling experiments (Q. Zheng et al., Ultra-stable organic fluorophores for single-molecule research. Chem Soc Rev 43, 1044-1056 (2014).)."}, "MBP-5D4": {"tested_on": "MBP-5D4", "assay": "Dissociation rate constant of anti-DNP scFv and probe (stopped-flow, competition with DNP)", "format": "binding, mouse", "conditions": "6DCF-DNP and 5D4", "protocol": "(§1) A flow channel in a stopped-flow apparatus (Bio-logic) was filled with a pretreatment liquid in which 1% w/v gelatin was dissolved in a phosphate buffer solution (pH 7.4) (PBS), and blocking was performed by leaving the apparatus at room temperature for at least 30 minutes, after which the flow channel was thoroughly washed with Milli-Q water. Using the apparatus, PBS in which MBP-5D4 or a variant thereof at a concentration of 100 nM or less and a probe at a concentration of 1 μM were dissolved, and PBS in which 100 μM DNP as a competitive substance was dissolved were mixed at a 1:1 ratio, and a fluorescence change was measured. At this time, the excitation/fluorescence wavelengths used were 510 nm/529-556 nm for the DCF probe and 650 nm/672-712 nm for the SiR probe, and measurement was performed under conditions of a temperature of 25-27C. A dissociation rate constant koff was calculated by fitting the fluorescence intensity I(t) observed with respect to time t using formula (1) below (FIG. 13 and Table 1).\nI(t)=c1·e^−k^off^t+c2·t+c3 Formula (1):\nIn the formula cn (n=1-3) is a constant."}, "5D4 (Y96F)": {"tested_on": "5D4 (Y96F)", "assay": "Dissociation rate constant of anti-DNP scFv mutant and probe (stopped-flow, competition with DNP)", "format": "binding, mouse", "excerpt": "(§2) An amino acid mutation was introduced into an MBP-scFv protein coding region by circular PCR with pMalc5E-5D4 as a template, using a thermostable polymerase KOD Plus (TOYOBO) and forward and reverse primers including a codon modified to correspond to the desired amino acid mutation. The resultant linear PCR product was circularized using a Ligation Kit Version 2 (TAKARA), and an MBP-scFv mutant expression construct was obtained.\nas §1, with “A dissociation rate constant koff was calculated by fitting the fluorescence intensity I(t) observed with respect to time t using formula (1) below (FIG. 13 and Table 1).” left out"}, "V94A mutant": {"tested_on": "V94A mutant", "assay": "Dissociation rate of alanine-scanning mutant and probe (competition experiments with DNP)", "format": "binding, mouse", "excerpt": "as §2\nas §1, with “A dissociation rate constant koff was calculated by fitting the fluorescence intensity I(t) observed with respect to time t using formula (1) below (FIG. 13 and Table 1).” left out"}, "[2]": {"tested_on": "5D4 fusion protein with TagRFP in HEK293T cells", "assay": "Expression test of anti-DNP scFv in cultured cells, fluorescent labeling of cytoplasm", "format": "cell-based", "conditions": "1 μM, 10 minutes room temperature, washed with HBS, HEK293T cells expressing TagRFP-5D4", "protocol": "HEK293T cells and HeLa cells were cultured in Dulbecco's Modified Eagle's Medium (DMEM, Wako) including 10% fetal bovine serum (FBS, SIGMA) at a carbon dioxide concentration of 5% and a temperature of 37° C.\nGene transfer into HeLa cells was performed using lipofection. For the HeLa cells under culture in a 24-well dish, 25 μL of Opti-MEM I (GIBCO) to which 0.5 μg of a plasmid had been added was added to a mixed solution of 2 μL of Lipofectamine 2000 (Invitrogen) and 25 μL of Opti-MEM I and incubated for five minutes at room temperature. This mixture was added to 500 μL of a medium 90-100% confluent with HEK293T cells and HeLa cells, and culturing was performed at 37° C. at a carbon dioxide concentration of 5%. Cell concentration was diluted to 1/10 5 to 8 hours after transfection, and cells were re-seeded on a glass dish. Cells were subjected to various imaging experiments after 24 hours had passed since transfection.\nThe 5D4 clone for which a fluorescence-increasing effect of the scFv on the fluorophore-DNP pair was observed was expressed in HEK293T cells as a fusion protein with the fluorescent protein TagRFP, and the state of expression of the scFv in the cells or the propriety of fluorescent labeling of cytoplasm by the fluorophore-DNP pair was evaluated. […]"}},
  "data": [
    {"molecule": "CCN1/C(=C/C=C/C=C/C2=[N+](CCCCCC(=O)O)c3ccc(S(=O)(=O)O)cc3C2(C)C)C(C)(C)c2cc(S(=O)(=O)[O-])ccc21", "note": "[Cy5]", "values": [
      {"measurement": "quantum yield", "setting": "[1]", "value": "0.2-0.4"}
    ]},
    {"molecule": "CN(CC(=O)NCCOCCOCCNc1ccc([N+](=O)[O-])cc1[N+](=O)[O-])C(=O)c1ccccc1-c1c2cc(Cl)c(=O)cc-2oc2cc(O)c(Cl)cc12", "note": "[DCF-DNP, 2-(2,7-dichloro-6-hydroxy-3-oxo-3H-xanthene-9-yl)-N-(2-((2-(2-(2-((2,4-dinitrophenyl)amino)ethoxy)ethoxy)ethyl)amino)-2-oxoethyl)-N-methylbenzamide]", "values": [
      {"measurement": "increase in fluorescence intensity", "setting": "5D4", "value": "about 10 times"}
    ]},
    {"molecule": "O=C(NCCOCCOCCNc1ccc([N+](=O)[O-])cc1[N+](=O)[O-])c1ccc(C(=O)O)c(-c2c3cc(Cl)c(=O)cc-3oc3cc(O)c(Cl)cc23)c1", "note": "[Probe 6DCF-DNP, 2-(2,7-dichloro-6-hydroxy-3-oxo-3H-xanthene-9-yl)-4-((2-(2-(2-((2,4-dinitrophenyl)amino)ethoxy)ethoxy)ethyl)carbamoyl)benzoate]", "values": [
      {"measurement": "dissociation rate constant (koff) for a fluorescence-OFF state", "setting": "MBP-5D4", "value": 0.014, "unit": "s⁻¹"},
      {"measurement": "dissociation rate", "setting": "5D4 (Y96F); Y96F mutant", "value": 1.1, "unit": "s⁻¹"},
      {"measurement": "dissociation rate made faster relative to original", "setting": "5D4 (Y96F); Y96F mutant and 6DCF-DNP vs original 5D4", "value": 100, "unit": "times"},
      {"measurement": "dissociation rate", "setting": "V94A mutant; V94A mutant and 6DCF-DNP", "value": 0.31, "unit": "s⁻¹"},
      {"measurement": "rate increase relative to the original rate", "setting": "V94A mutant; V94A mutant and 6DCF-DNP vs original 5D4", "value": 25, "unit": "times"}
    ]},
    {"molecule": "CC(=O)Oc1cc2c(cc1F)C1(OC(=O)c3ccc(C(=O)NCCOCCOCCNc4ccc([N+](=O)[O-])cc4[N+](=O)[O-])cc31)c1cc(F)c(OC(C)=O)cc1O2", "note": "[Probe 6OGdiac-DNP, 6-((2-(2-(2-((2,4-dinitrophenyl)amino)ethoxy)ethoxy)ethyl)carbamoyl)-2′,7′-difluoro-3-oxo-3H-spiro[isobenzofuran-1,9′-xanthene]-3′,6′-diyl diacetate]", "values": [
      {"measurement": "green fluorescence in cells", "setting": "[2]", "value": "confirmed only in the cytoplasm of TagRFP-positive HEK293T cells"}
    ]},
    {"molecule": "Cy5.5", "values": [
      {"measurement": "quantum yield", "setting": "[1]", "value": 0.24}
    ]}
  ]
}
